Five compounds from patent publication US11690850B2, “Inhibitors of receptor interacting protein kinase I for the treatment of disease” (Board of Regents, The University of Texas System, priority 2019, dated 2023) can be followed below.

Assay [1] relates to human monocytic cell line U937. As to the kind of experiment: Human U937 Cellular Necroptosis Assay. It counts as cell-based. As to conditions: U-937; U937 cells stimulated with 25 ng/mL human TNFalpha and 25 μM z-VAD-FMK, 22 hr, viability by Cell Titer-Glo 2.0; average value across multiple runs; read-out: hU937 IC50.
In the next assay the target is RIPK1 (Homo sapiens (Human), UniProt Q13546). As to the kind of experiment: ADP-Glo Kinase Assay. Conditions: 5 nM RIPK1 protein, 50 μM ATP, 6 hr reaction, average value across multiple runs. Format: biochemical. Put shortly:
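ADP formed from ATP is measured by ADP-Glo luminescence with 5 nM RIPK1, preincubated 10 min with compound, then 50 μM ATP for 6 h. Buffer is 50 mM HEPES pH 7.5, 50 mM NaCl, 30 mM MgCl2, 1 mM DTT, 0.05% BSA, 0.02% CHAPS. IC50 comes from a four-parameter fit, averaged over runs.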

Chain of RIPK1 (Q13546 1-327): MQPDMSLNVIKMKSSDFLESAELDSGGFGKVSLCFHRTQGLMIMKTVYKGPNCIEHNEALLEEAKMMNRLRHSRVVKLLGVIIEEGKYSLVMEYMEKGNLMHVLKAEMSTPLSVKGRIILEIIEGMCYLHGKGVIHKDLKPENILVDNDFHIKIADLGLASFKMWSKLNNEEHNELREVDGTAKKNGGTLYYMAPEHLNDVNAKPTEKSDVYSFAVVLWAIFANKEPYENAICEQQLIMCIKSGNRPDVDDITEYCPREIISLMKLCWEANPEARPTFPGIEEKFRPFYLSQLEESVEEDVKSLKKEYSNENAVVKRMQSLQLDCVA

In general, IC50 refers to the midpoint of a concentration-inhibition curve. As to `Cc1cc(=O)c(C(=O)NC2CCc3ccccc3NC2=O)nn1-c1cccc(Cl)c1` (stereo not shown) [Example 68, 1-(3-chlorophenyl)-6-methyl-4-oxo-N-(2-oxo-2,3,4,5-tetrahydro-1H-benzo[b]-azepin-3-yl)-1,4-dihydropyridazine-3-carboxamide], the IC50 in assay [1] was 142 nM; at RIPK1 it was 57.8 nM.
Regarding `Cc1cc(=O)c(C(=O)NC2CCc3cc(F)cc(F)c3NC2)nn1-c1ccccc1` (stereo not shown) [Example 69, N-(7,9-difluoro-2,3,4,5-tetrahydro-1H-benzo[b]azepin-3-yl)-6-methyl-4-oxo-1-phenyl-1,4-dihydropyridazine-3-carboxamide], the half-inhibitory concentration (IC50) in assay [1] turned out to be 10000 nM; on RIPK1, 8500 nM.
On the same counts, the results for `O=C(NC1CCc2ccccc2NC1=O)c1nn(-c2ccccc2)c2ccccc2c1=O` (stereo not shown) [Example 70, 4-oxo-N-(2-oxo-2,3,4,5-tetrahydro-1H-benzo[b]azepin-3-yl)-1-phenyl-1,4-dihydrocinnoline-3-carboxamide] are 227 nM and 28.9 nM.
On the same counts, the results for `Cc1ccc(-n2nc(C(=O)NC3CCc4ccccc4NC3=O)c(=O)cc2C)cc1` (stereo not shown) [Example 71, 6-methyl-4-oxo-N-(2-oxo-2,3,4,5-tetrahydro-1H-benzo[b]azepin-3-yl)-1-(p-tolyl)-1,4-dihydropyridazine-3-carboxamide] are 50.2 nM and 30.9 nM.
`Cc1cc(=O)c(C(=O)NC2CCn3nccc3N(C)C2=O)nn1-c1ccccc1` (stereo not drawn) [Example 72, 6-methyl-N-(4-methyl-5-oxo-5,6,7,8-tetrahydro-4H-pyrazolo[1,5-a][1,3]diazepin-6-yl)-4-oxo-l-phenyl-1,4-dihydropyridazine-3-carboxamide]: the half-maximal inhibitory concentration (IC50) in assay [1] was 222 nM; at RIPK1, 90.6 nM.
